This is an account of results in publication PMC9500755, “Albumin-Mediated Size Exclusion Chromatography: The Apparent Molecular Weight of PSMA Radioligands as Novel Parameter to Estimate Their Blood Clearance Kinetics” (Pharmaceuticals, 2022).

Values joined by “and” are separate entries in the source; they are usually repeats but may differ in a detail not shown here. Equal entries are not always repeated.

Series [1] concerns the target T1, human serum albumin (HSA) (Homo sapiens, UniProt P02768).
T1 construct: purchased Biowest, Nuaillé, France
Briefly: Albumin-mediated size exclusion chromatography (AMSEC). The class given is in vitro ADME. The conditions noted are these: for tR,AMSEC (retention time in AMSEC run): 177Lu-labeled ligand, mobile phase 700 µM HSA in PBS pH 7.4, Superdex 75 Increase, corrected for detector offset, normalized to column 1; for Retention factor k: fraction of time the radioligand is complexed to HSA during the AMSEC run, Equation (2); for MWapp,raw (raw apparent molecular weight): from tR,AMSEC by column calibration, 700 µM HSA in PBS pH 7.4; for MWapp,norm. (normalized apparent molecular weight): from tR,norm. by column calibration; for tR,norm. (normalized retention time): normalized with tR,blank, tR,HSA and tR,acetone, Equation (5). The protocol: All size exclusion chromatographic (SEC) experiments were carried out using the above-mentioned HPLC system equipped with a Superdex 75 Increase 10/300 GL gel filtration size exclusion column (fractionation range 70–3 kDa, GE Healthcare, Uppsala, Sweden). Eluents at room temperature, a constant flow rate of 0.8 mL/min, and an acquisition time of 35 min were generally applied. The column was calibrated as recommended by the manufacturer using a commercially available set of proteins (Gel Filtration LMW Calibration Kit, GE Healthcare, Buckinghamshire, UK). Retention times of calibration proteins and calculated calibration parameters are given in the Supplementary Materials (Table S3). UV signal detection occurred at 280 nm.
All retention times of radio signals were corrected for the offset between the UV-vis detector and radio-detector (Δt = 0.084 min). Throughout the development of the AMSEC method, three gel filtration columns of the same type were used for experiments (most data were acquired using column 1). As calculations were based on absolute empirical retention times that inherently differed slightly from column to column, all retention times determined on column 2 and column 3 were mathematically converted to an equivalent retention time on column 1 using the columns’ calibration parameters. A detailed description of these calculations is provided in the Supplementary Materials.
All numerical retention times explicitly given in running text or tables and plotted in diagrams are already corrected for the offset between UV-vis and radio-detector and, if initially determined on columns 2 or 3, converted to the equivalent retention time on column 1 (for detailed information, see Equations (S1) and (S2) and Table S1 in the Supplementary Materials).
AMSEC runs were executed with a solution of HSA (Biowest, Nuaillé, France) in PBS (pH 7.4) at physiological concentration (700 µM) as a mobile phase. Upon injection of approximately 1.0 MBq (5–10 µL) of a radioligand, the elution profile was monitored via radioactivity detection, and the retention times of observed radiopeaks (tR,AMSEC) were determined via semi-automated peak integration. By means of calibration, retention times were translated into a ligand-specific raw apparent molecular weight (MWapp,raw) as a parameter to assess the extent of HSA binding (for calculation, see Equation (S6) in the Supplementary Materials). rhPSMA-7.3 served as an internal standard during AMSEC studies and was co-evaluated whenever new data were collected to assess the reproducibility of the method (n = 14).
For reference purposes, conventional SEC runs of HSA (100 µL, 3 mg/mL) and acetone (100 µL, 2% in PBS pH 7.4) with PBS (pH 7.4) as a mobile phase were executed. The retention time of HSA (tR,HSA) corresponded to the maximal MWapp,raw, theoretically observable in AMSEC runs in the case of continuous binding of a radioligand to HSA (equivalent to 100% HSA binding). The retention time of acetone (tR,acetone) served as a reference for a ligand with no interaction with HSA in AMSEC runs (equivalent to 0% HSA binding) and an actual physical molecular weight below the column fractionation range (this was the case for all investigated radioligands).
MWapp,raw values determined as described in Section 3.3.1. were normalized in order to account for ligand-specific influences on experimentally determined retention times and to establish quantitative comparability of the obtained MWapp,norm. values. The normalization was based on a SEC run (referred to as blank run) of a radioligand executed in analogy to the AMSEC run but using PBS (pH 7.4) without HSA as a mobile phase. The determined retention time tR,blank, together with the retention time tR,AMSEC from the AMSEC run, tR,HSA, and tR,acetone determined in Section 3.3.1, were used to calculate a normalized retention time tR,norm. for every radioligand (for formulae and details on the calculation, see Section 2. Results and Discussion). […]

Series [2] can be described thus: Calculated glomerular sieving coefficients (GSCcalc) from MWapp,norm. Particulars: from MWapp,norm. via sigmoidal fit of MW vs GSC of 12 human plasma proteins. The text has this:
Therefore, when comparing the MWapp,norm. of different radioligands, not only their relative difference but also the absolute values of MWapp,norm. are of importance. […] These GSCcalc determined for all the PSMA radioligands (Table 2, Figure 5) inherently account for the exponential nature of the relationship between their albumin-mediated MWapp,norm. and MW-dependent GF and could, therefore, be a useful parameter to estimate differences in blood clearance by means of GF. The GSC is defined as the ratio of a compound’s concentration in the glomerular filtrate to that in the blood; thus, a GSC of 1 represents unhindered filtration through the capillary membrane in the glomerulus, while a lower GSC corresponds to a restricted filtration and, thus, a prolonged circulatory half-life. […] As an example, a GSCcalc of 0.408 was determined for rhPSMA-7.3, while an almost three-fold smaller GSCcalc of 0.138 was determined for rhPSMA-7.4. […] This would constitute a dramatic physiological effect that, in its extent, could not be predicted only based on subtle differences in molecular structure and other conventionally determined in vitro parameters. We, therefore, believe that the MWapp,norm. and GSCcalc obtained by AMSEC could be important parameters that, already at the preclinical stage of development, could help in the selection of promising therapeutic radioligands with pharmacokinetic profiles suitable for patient application.
A sigmoidal fit of molecular weights (MWs, in kDa) and corresponding glomerular sieving coefficients (GSCs) of 12 human plasma proteins (data taken from Norden et al.) was executed using OriginPro software. A dose-response model based on Equation (6) was applied:(6) GSC=A1+A2−A1/1+10^(LOGx0−MW)·p.
The values of bottom asymptote A1 and top asymptote A2 were set to 4.2∙10^−5 (GSC of IgG, data taken from Norden et al.) and 1 (equaling complete sieving), respectively. Curve fitting gave the center parameter LOGx0 = 19.36833 and the Hill slope p = −0.12108. GSCcalc values were calculated via implementation of fitting parameters and the experimentally determined MWapp,norm. in Equation (6).

Details of series [3]: method as in PMID 35086894. The conditions noted are these: head-to-head with four isomers of rhPSMA-7 and rhPSMA-10.2; cited from earlier work.
Series [4] can be described thus: Blank SEC run of radioligand (PBS pH 7.4 without HSA). In kind it is physicochemical. Particulars: PBS pH 7.4 without HSA. The method, then: To validate this hypothesis, blank runs (PBS pH 7.4 as mobile phase) of the radioligands on the SEC column were performed. The resulting retention times were termed tR,blank and represent the ligand-specific retention time that would correspond to 0% HSA binding in the AMSEC experiment. […] We concluded that unspecific electrostatic interactions between the highly negatively charged radioligand and the agarose/dextran-based matrix of the superdex column are present and lead to an elution prior to the expected cut-off volume. Consequently, apart from the radioligand’s binding to HSA in the AMSEC run, the unspecific interactions with the column matrix contribute to the determined MWapp,raw, thus hampering its informative value. […]
MWapp,raw values determined as described in Section 3.3.1. were normalized in order to account for ligand-specific influences on experimentally determined retention times and to establish quantitative comparability of the obtained MWapp,norm. values. […] The determined retention time tR,blank, together with the retention time tR,AMSEC from the AMSEC run, tR,HSA, and tR,acetone determined in Section 3.3.1, were used to calculate a normalized retention time tR,norm. for every radioligand (for formulae and details on the calculation, see Section 2. Results and Discussion). […]

On the set-up of series [5]: method as in PMID 34531260. Particulars: 177Lu-labeled, intrapatient comparison vs PSMA-I&T; cited from earlier work.
Details of series [6]: method as in PMID 30105912, PMID 29684274. The conditions noted are these: 177Lu-labeled, mice; cited from earlier work.
Details of series [7]: method as in PMID 26985056. The conditions noted are these: 177Lu-labeled; cited from earlier work.

T1 sequence (P02768 25-609): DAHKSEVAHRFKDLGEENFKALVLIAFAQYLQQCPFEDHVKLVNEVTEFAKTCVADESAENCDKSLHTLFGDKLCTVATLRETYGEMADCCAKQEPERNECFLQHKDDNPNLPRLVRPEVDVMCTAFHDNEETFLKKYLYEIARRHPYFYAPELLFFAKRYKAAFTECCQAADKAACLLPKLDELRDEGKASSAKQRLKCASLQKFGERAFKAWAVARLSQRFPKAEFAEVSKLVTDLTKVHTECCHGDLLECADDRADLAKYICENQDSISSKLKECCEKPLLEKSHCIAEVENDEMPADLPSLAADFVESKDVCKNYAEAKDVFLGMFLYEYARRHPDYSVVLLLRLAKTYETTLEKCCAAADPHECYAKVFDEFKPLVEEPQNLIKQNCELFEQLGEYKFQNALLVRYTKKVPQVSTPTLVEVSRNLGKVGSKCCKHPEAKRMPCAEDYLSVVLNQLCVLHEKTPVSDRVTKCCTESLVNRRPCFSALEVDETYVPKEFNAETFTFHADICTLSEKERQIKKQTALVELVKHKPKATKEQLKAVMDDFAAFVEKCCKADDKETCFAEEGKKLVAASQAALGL

With `CC(C)(C)[Si](F)(c1ccc(C(=O)NC[C@@H](NC(=O)CN2CCN(CC(=O)[O-])CCN(CC(=O)[O-])CCN(CC(=O)[O-])CC2)C(=O)N[C@H](CCCCNC(=O)CCC(=O)NCCC[C@@H](NC(=O)CC[C@H](NC(=O)N[C@@H](CCC(=O)O)C(=O)O)C(=O)O)C(=O)O)C(=O)O)cc1)C(C)(C)C.[177Lu+3]` [rhPSMA-10.1], in series [1], the “tR,AMSEC (retention time in AMSEC run)” value was 15.410 min, the Retention factor k is listed as 0.616, the “MWapp,raw (raw apparent molecular weight)” value amounted to 25.3 kDa and the “MWapp,norm. (normalized apparent molecular weight)” value stood at 17.2 kDa. In addition, the “tR,norm. (normalized retention time)” value in series [1] is on record as 16.789 min. Moreover, the “MWapp,norm. higher than that of the stereoisomer” value in series [1] (rhPSMA-7.2 vs rhPSMA-7.1, rhPSMA-10.1 vs rhPSMA-10.2) is 30%. Besides, the “GSCcalc (calculated glomerular sieving coefficient)” value (shortened to “GSCcalc”) in series [2] is reported as 0.644. In series [3], the “blood clearance in mice” value was “fast blood clearance”.

`CC(C)(C)[Si](F)(c1ccc(C(=O)NC[C@@H](NC(=O)CC[C@@H](C(=O)O)N2CCN(CC(=O)[O-])CCN(CC(=O)[O-])CCN(CC(=O)[O-])CC2)C(=O)N[C@H](CCCCNC(=O)CCC(=O)NCCC[C@@H](NC(=O)CC[C@H](NC(=O)N[C@@H](CCC(=O)O)C(=O)O)C(=O)O)C(=O)O)C(=O)O)cc1)C(C)(C)C.[177Lu+3]` [rhPSMA-7.3]: in series [1], the “tR,AMSEC (retention time in AMSEC run)” value was 14.722 min and 14.722 ^3 min; the Retention factor k is reported as 0.667 ^1; the “MWapp,raw (raw apparent molecular weight)” value is recorded as 30.6 ^3 kDa; the “MWapp,norm. (normalized apparent molecular weight)” value was 20.7 kDa and 20.7 ^1 kDa. Also, in series [1], the “tR,norm. (normalized retention time)” value is 16.125 ^1 min. For the same compound, the “mean MWapp,raw” value in series [1] (mean ± SD, n = 14) is 30.6 kDa. The “MW mathematically corresponding to tR,blank” value in series [4] is listed as 6.0 kDa. In addition, the “GSCcalc” value in series [2] was 0.408. Also, the “tumor dose relative to PSMA-I&T” value in series [5] was 2.4 fold.

Regarding `Cc1ccc(CCCC(=O)NCCCC[C@H](NC(=O)CN2CCN(CC(=O)O)CCN(CC(=O)O)CCN(CC(=O)O)CC2)C(=O)NCC2CCC(C(=O)N[C@@H](Cc3ccc4ccccc4c3)C(=O)NCCCC[C@H](NC(=O)N[C@@H](CCC(=O)O)C(=O)O)C(=O)O)CC2)cc1` (stereo partly shown) (177Lu complex, metal not drawn) [PSMA-ALB-56], the “therapeutic efficacy compared to PSMA-617” value in series [6] was “superior therapeutic efficacy”.

Regarding `O=C(O)CC[C@H](NC(=O)N[C@@H](CCCCNC(=O)[C@H](Cc1ccc2ccccc2c1)NC(=O)[C@H]1CC[C@H](CNC(=O)CN2CCN(CC(=O)O)CCN(CC(=O)O)CCN(CC(=O)O)CC2)CC1)C(=O)O)C(=O)O` (177Lu complex, metal not drawn) [PSMA-617, reference compound], in series [1], the “tR,AMSEC (retention time in AMSEC run)” value was 17.586 min, the Retention factor k turned out to be 0.447, the “MWapp,raw (raw apparent molecular weight)” value was found to be 13.8 kDa and the “MWapp,norm. (normalized apparent molecular weight)” value was determined as 9.4 kDa. In addition, in series [1], the “tR,norm. (normalized retention time)” value is 18.988 min. Also, the “GSCcalc” value in series [2] is given as 0.942. Further, the blood clearance result in series [7] is on record as “rapid, bi-phasic blood clearance”.
